The results in this text go back to ChEMBL document CHEMBL4483862, “Open-source discovery of chemical leads for next-generation chemoprotective antimalarials” (2018).

In the test the test system is Plasmodium berghei. In words: Luciferase/luciferin-expressing antifolate-resistant parasites were used to infect a culture of HepG2 cells that were pre-incubated with compounds. Infected hepatocytes emit light due to the luciferase reaction. Assay results are presented as the percent inhibition of light emission compared to control. […]. Format: functional. As to conditions: sporozoite; for IC90: read-out: LUCIFERASE INFECTION ASSAY - IC90.

[1] abbreviates: read-out: LUCIFERASE INFECTION ASSAY - IC50.

Some results are limits rather than exact numbers.

By IC50 is commonly meant the concentration that inhibits the measured activity by half. The term IC90 denotes the concentration at which the effect reaches the 90% level. In the case of `CCc1ccc(-c2nc(C(=O)Nn3cn[nH]c3=S)cs2)cc1`, the IC90 is more than 10 µM. For the setting “PBLUC_HILL_SLOPE 3.31, PBLUC_R_SQUARED 0.251, read-out: LUCIFERASE INFECTION ASSAY - IC50”, the half-maximal inhibitory concentration (IC50) was 5.44 µM.
Consider `COc1cc(-c2nc3ccc(NC(=O)c4cccnc4)cn3n2)cc(OC)c1OC`, for which the IC90 was more than 10 µM. Besides, where the note is “PBLUC_HILL_SLOPE 1.26, PBLUC_R_SQUARED 0.59, read-out: LUCIFERASE INFECTION ASSAY - IC50”, the 50% inhibitory concentration (IC50) came to 6.96 µM.
`Cc1noc(-c2ccc(Cl)cc2)c1C(=O)ONC(=N)c1ccc(C(F)(F)F)cc1`: the IC90 was more than 7.79 µM. For the same compound, the half-maximal inhibitory concentration (IC50) under setting [1] is more than 7.79 µM.
Regarding `O=c1nc(-c2ccc(Cl)cc2)oc2ccccc12`, the IC90 worked out at 10.8 µM. Moreover, the IC50 (PBLUC_HILL_SLOPE 3.1, PBLUC_R_SQUARED 0.539, read-out: LUCIFERASE INFECTION ASSAY - IC50) was 5.33 µM.
Take `Cc1cc(C(=O)Cn2cnc3ccccc3c2=O)c(C)n1-c1ccccc1F`: the IC90 is more than 10 µM. Also, the 50% inhibitory concentration (IC50) (HEPG2TOX_HILL_SLOPE 1.86, HEPG2TOX_R_SQUARED 0.464, PBLUC_HILL_SLOPE 1.21, PBLUC_R_SQUARED 0.574, read-out: LUCIFERASE INFECTION ASSAY - IC50) stood at 3.66 µM.
Take `FC(F)(F)c1cccc(-c2cnc3sc(NCCc4ccncc4)nn23)c1`: the concentration for an effect of 90% (IC90) was more than 8.47 µM. For the same compound, the IC50 under setting [1] was more than 8.47 µM.
`Cc1cccc(C)c1N1C(=O)C=CC1=O`: the IC90 was more than 16.4 µM. The half-maximal inhibitory concentration (IC50) (PBLUC_HILL_SLOPE 2.64, PBLUC_R_SQUARED 0.435, read-out: LUCIFERASE INFECTION ASSAY - IC50) was more than 16.4 µM.
Turning to `O=c1cc(CSc2nc3ccccc3s2)[nH]c2nc3ccccc3n12`, the concentration for an effect of 90% (IC90) turned out to be 3.5 µM. The IC50 (PBLUC_HILL_SLOPE 13.4, PBLUC_R_SQUARED 0.218, read-out: LUCIFERASE INFECTION ASSAY - IC50) is 2.97 µM.
As to `O=[N+]([O-])c1ccccc1/C=N/n1c(-c2ccc(Cl)cc2)cs/c1=N\CC1CCCO1` (configuration not stated), the concentration for an effect of 90% (IC90) was 7.09 µM. Also, for the setting “HEPG2TOX_HILL_SLOPE 0.61, HEPG2TOX_R_SQUARED 0.914, PBLUC_HILL_SLOPE 1.45, PBLUC_R_SQUARED 0.571, read-out: LUCIFERASE INFECTION ASSAY - IC50”, the half-maximal inhibitory concentration (IC50) stood at 1.55 µM.
With `Cc1ccc(OCC(O)CN2CCc3ccccc3C2)c(C)c1` (configuration not stated), the 90% effect concentration (IC90) is more than 9.49 µM. For the same compound, under setting [1], the concentration for half-maximal inhibition (IC50) was more than 9.49 µM.
As to `CCOC(=O)c1c(S(=O)(=O)Nc2ccc(Cl)cc2)c(-c2ccccc2)n(-c2ccccc2)c1C`, the 90% effect concentration (IC90) is more than 6.67 µM. Also, the concentration for half-maximal inhibition (IC50) under setting [1] was determined as 4.84 µM.
For `COc1cccc(Cn2nc(C(=O)NC3CC3)c3c2CCN(C(=O)c2cc4ccccc4[nH]2)C3)c1` the same measures were more than 7.03 µM and more than 7.03 µM.
For `OCCNc1nc(Sc2ccc(Cl)cc2)nc2ccccc12` the same measures were more than 10 µM and more than 10 µM.
For `Cc1ccccc1-n1c(SCC(=O)Nc2sc3c(c2C(N)=O)CCC3)nc2ccccc2c1=O`, the concentration for an effect of 90% (IC90) was more than 10 µM. Moreover, where the note is “HEPG2TOX_HILL_SLOPE 1.4, HEPG2TOX_R_SQUARED 0.675, read-out: LUCIFERASE INFECTION ASSAY - IC50”, the concentration for half-maximal inhibition (IC50) is more than 10 µM.
Take `COc1ccc(CCn2nc(C(=O)NC3CC3)c3c2CCN(C(=O)c2cc(C)n[nH]2)C3)cc1`: the concentration for an effect of 90% (IC90) is 4.91 µM. Besides, where the note is “PBLUC_HILL_SLOPE 5.54, PBLUC_R_SQUARED 0.701, read-out: LUCIFERASE INFECTION ASSAY - IC50”, the half-maximal inhibitory concentration (IC50) was found to be 3.31 µM.
Take `COc1ccc([N+](=O)[O-])cc1C(=O)NCCOc1ccc2ccccc2c1`: the IC90 was more than 10 µM. In addition, where the note is “PBLUC_HILL_SLOPE 24.5, PBLUC_R_SQUARED 0.535, read-out: LUCIFERASE INFECTION ASSAY - IC50”, the IC50 was determined as 9.5 µM.
As to `Cc1nn(Cc2nnc(-c3ccco3)o2)c(C)c1S(=O)(=O)N1CCCCC1`, the concentration for an effect of 90% (IC90) is more than 10 µM. Also, the IC50 under setting [1] was more than 10 µM.
With `COC(=O)C1C(c2ccc(N(C)C)cc2)C(C(=O)OC)S(=O)(=O)C(=NNc2ccc(OC)cc2[N+](=O)[O-])S1(=O)=O` (configuration not stated), the IC90 is more than 10 µM. Also, the IC50 (FFLUC_HILL_SLOPE 2.66, FFLUC_R_SQUARED 0.775, read-out: LUCIFERASE INFECTION ASSAY - IC50) is more than 10 µM.
In the case of `N#CCc1c(C#N)c(N)nc(Nc2ccc(F)cc2F)c1C#N`, the concentration for an effect of 90% (IC90) was determined as 6.78 µM. In addition, the half-maximal inhibitory concentration (IC50) under setting [1] was 3.64 µM.
For `COc1cc(/C=C/C(=O)OC(C(=O)c2c[nH]c3ccccc23)c2ccccc2)cc(OC)c1OC` (configuration not stated) the same measures were more than 10 µM and more than 10 µM.
For `Clc1ccccc1CNc1ncnc2ccsc12` the same measures were more than 10 µM and more than 10 µM.
As for `Cc1cc(N2CCN(Cc3nc(=O)c4cc(Cl)ccc4[nH]3)CC2)nc(C(C)C)n1`, the IC90 was more than 10 µM. Moreover, for the setting “HEPG2TOX_HILL_SLOPE 8.69, HEPG2TOX_R_SQUARED 0.562, PBLUC_HILL_SLOPE 3.21, PBLUC_R_SQUARED 0.576, read-out: LUCIFERASE INFECTION ASSAY - IC50”, the concentration for half-maximal inhibition (IC50) was determined as 5.79 µM.
In the case of `CC(C)(C)c1ccc2nc(/C(=C\c3ccc(F)cc3)NC(=O)c3ccccc3)[nH]c2c1`, the 90% effect concentration (IC90) was more than 7.98 µM. The IC50 (PBLUC_HILL_SLOPE 14.3, PBLUC_R_SQUARED 0.247, read-out: LUCIFERASE INFECTION ASSAY - IC50) worked out at 6.92 µM.
As to `CC(=O)N1CCc2cc(S(=O)(=O)Nc3ccc(Cl)cc3)ccc21`, the IC90 was more than 9.41 µM. For the setting “PBLUC_HILL_SLOPE 0.924, PBLUC_R_SQUARED 0.105, read-out: LUCIFERASE INFECTION ASSAY - IC50”, the half-inhibitory concentration (IC50) was more than 9.41 µM.
As for `COc1ccc(-c2[nH]c3ccc(F)cc3c2CCC(=O)NCc2nnc3ccccn23)cc1`, the IC90 was more than 10 µM. Also, the concentration for half-maximal inhibition (IC50) (PBLUC_HILL_SLOPE 1.44, 1.44, PBLUC_R_SQUARED 0.412, 0.538, read-out: LUCIFERASE INFECTION ASSAY - IC50) amounted to 5.36 µM.
Turning to `O=C(N/N=C/c1cccc(O)c1O)c1ccc(CN2c3cccc4cccc(c34)S2(=O)=O)cc1`, the concentration for an effect of 90% (IC90) is more than 10 µM. Further, the half-maximal inhibitory concentration (IC50) (FFLUC_HILL_SLOPE 14.9, FFLUC_R_SQUARED 0.808, read-out: LUCIFERASE INFECTION ASSAY - IC50) is more than 10 µM.
Turning to `COc1cc2c(cc1NC(=O)C1CCCN(S(=O)(=O)c3ccc(F)cc3)C1)oc1ccccc12` (configuration not stated), the 90% effect concentration (IC90) is more than 10 µM. Under setting [1], the IC50 was more than 10 µM.
As for `CCOc1ccc(Nc2nc3cc(S(=O)(=O)N(CC)CC)ccc3o2)cc1`, the concentration for an effect of 90% (IC90) was more than 10 µM. Further, for the setting “HEPG2TOX_HILL_SLOPE 0.167, HEPG2TOX_R_SQUARED 0.162, read-out: LUCIFERASE INFECTION ASSAY - IC50”, the half-inhibitory concentration (IC50) is more than 10 µM.
Regarding `O=C(Cc1ccsc1)NNC(=O)c1cccc(S(=O)(=O)Nc2cccc(C(F)(F)F)c2)c1`, the IC90 is more than 10 µM. The concentration for half-maximal inhibition (IC50) under setting [1] is more than 10 µM.
For the compound `O=C(Nc1nc2ccccn2c1C(=O)NC1CCCCC1)c1c(F)ccc(F)c1F`, the IC90 was more than 7.93 µM. Besides, the 50% inhibitory concentration (IC50) under setting [1] is more than 7.93 µM.
Consider `COc1ccccc1-c1nc2ccc(NC(=O)c3cc(C(C)(C)C)nn3C)cn2n1`, for which the IC90 is more than 10 µM. Further, the half-maximal inhibitory concentration (IC50) under setting [1] is more than 10 µM.
With `COc1cc(-c2cn3c(-c4ccc5ncccc5c4)cnc3cn2)ccc1O`, the concentration for an effect of 90% (IC90) was found to be 4.57 µM. Besides, the IC50 (HEPG2TOX_HILL_SLOPE 2.88, HEPG2TOX_R_SQUARED 0.967, PBLUC_HILL_SLOPE 7.35, PBLUC_R_SQUARED 0.638, read-out: LUCIFERASE INFECTION ASSAY - IC50) came to 3.39 µM.
Take `CN(C)c1c(F)cc(C(=O)Nc2cc(C(F)(F)F)cc(C(F)(F)F)c2)cc1F`: the IC90 was more than 8 µM. The concentration for half-maximal inhibition (IC50) (HEPG2TOX_HILL_SLOPE 10.3, HEPG2TOX_R_SQUARED 0.772, PBLUC_HILL_SLOPE 1.36, PBLUC_R_SQUARED 0.505, read-out: LUCIFERASE INFECTION ASSAY - IC50) was more than 8 µM.
For `Cc1nc(Nc2ccc(C(=O)N(C)C)cc2)c2c(-c3ccccc3)csc2n1`, the IC90 worked out at 8.69 µM. Under “FFLUC_HILL_SLOPE 16.2, FFLUC_R_SQUARED 0.398, PBLUC_HILL_SLOPE 15.9, 4.17, PBLUC_R_SQUARED 0.757, 0.868, read-out: LUCIFERASE INFECTION ASSAY - IC50”, the IC50 worked out at 7.45 µM.
In the case of `CCCn1c(NC(=O)c2ccc3ncsc3c2)nc2ccccc21`, the concentration for an effect of 90% (IC90) is 9.62 µM. For the same compound, the concentration for half-maximal inhibition (IC50) under setting [1] is 8.47 µM.
For `CCOc1cccc(/C=C/c2ccc3cccc(O)c3n2)c1O`, the 90% effect concentration (IC90) came out at 10.6 µM. Also, the IC50 (PBLUC_HILL_SLOPE 16.2, PBLUC_R_SQUARED 0.451, read-out: LUCIFERASE INFECTION ASSAY - IC50) came out at 9.23 µM.
With `O=C(CSc1nnc(-c2ccccc2)o1)Nc1ncc(Cl)cc1Cl`, the IC90 turned out to be 1.2 µM. Besides, the IC50 (HEPG2TOX_HILL_SLOPE 0.667, HEPG2TOX_R_SQUARED 0.783, PBLUC_HILL_SLOPE 16.1, PBLUC_R_SQUARED 0.672, read-out: LUCIFERASE INFECTION ASSAY - IC50) was 1.05 µM.
In the case of `Cc1ccccc1OCCN(C)C(=O)NCCc1cccs1`, the IC90 is 4.09 µM. Also, for the setting “HEPG2TOX_HILL_SLOPE 3.22, HEPG2TOX_R_SQUARED 0.951, PBLUC_HILL_SLOPE 11.1, PBLUC_R_SQUARED 0.17, read-out: LUCIFERASE INFECTION ASSAY - IC50”, the 50% inhibitory concentration (IC50) worked out at 3.35 µM.
As to `CC(C)(C)c1nnc(Sc2ncc([N+](=O)[O-])s2)[nH]1`, the IC90 was 11.3 µM. Also, the half-inhibitory concentration (IC50) (FFLUC_HILL_SLOPE 12.8, FFLUC_R_SQUARED 0.253, HEPG2TOX_HILL_SLOPE 7.13, HEPG2TOX_R_SQUARED 0.706, PBLUC_HILL_SLOPE 14.6, PBLUC_R_SQUARED 0.134, read-out: LUCIFERASE INFECTION ASSAY - IC50) was 9.74 µM.
On to `Cc1nc(N2CCC(C)CC2)nc2c1C(=O)CC(/C=C/c1ccccc1)C2` (configuration not stated), for which the concentration for an effect of 90% (IC90) is more than 9.13 µM. Moreover, the IC50 under setting [1] is more than 9.13 µM.
For `FC(F)(F)Oc1ccc(Nc2cc(-c3cccc(Cl)c3)ncn2)cc1`, the IC90 was more than 9.02 µM. In addition, the IC50 under setting [1] was more than 9.02 µM.
